What was measured:
Puccinia recondita = experiment: Curative activity against brown rust of wheat (potted wheat seedlings cv. Kanzler); type: in vivo; details: single active, 7 days
Experimental: (§1) The active compounds are prepared separately or together as a 10% strength emulsion in a mixture of 63% by weight of cyclohexanone and 27% by weight of emulsifier and diluted with water to the desired concentration.
(§2) Evaluation is carried out by determining the infected leaf areas in percent. These percentages are converted into efficacies. The efficacy (E) is calculated as follows using Abbot's formula: E=(1−α)*100/β • α corresponds to the fungal infection of the treated plants in % and • β corresponds to the fungal infection of the untreated (control) plants in %
(§3) An efficacy of 0 means that the infection level of the treated plants corresponds to that of the untreated control plants; an efficacy of 100 means that the treated plants were not infected.
(§4) The expected efficacies of the active compound mixtures were determined using Colby's formula [S. R. Colby, Weeds 15, 20-22 (1967)] and compared with the observed efficacies. Colby's formula: E=x+y−x−y/100 • E expected efficacy, expressed in % of the untreated control, when using the mixture of the active compounds A and B at the concentrations a and b • x efficacy, expressed in % of the untreated control, when using active compound A at a concentration of a • y efficacy, expressed in % of.the untreated control, when using active compound B at a concentration of b
Leaves of potted wheat seedlings of the cultivar “Kanzler” were dusted with spores of brown rust (Puccinia recondita). The pots were then placed in a chamber with high atmospheric humidity (90 to 95%), at 20 to 22° C., for 24 hours. During this period of time, the spores germinated and the germinal tubes penetrated into the leaf tissue. The next day, the infected plants were sprayed to runoff point with an aqueous suspension having the concentration of active compound stated below. The suspension or emulsion had been prepared from a stock solution comprising 10% of active compound in a mixture consisting of 85% of cyclohexanone and 5% of emulsifier. After the spray coating had dried on, the test plants were cultivated in a greenhouse at temperatures between 20 and 22° C. and at 65 to 70% relative atmospheric humidity for 7 days. The extent of the rust fungus development on the leaves was then determined.
The visually determined percentages of infected leaf areas were converted into efficacies as % of the untreated control. An efficacy of 0 means that the infection level of the treated plants corresponds to that of the untreated control; an efficacy of 100 means 0% infection. The expected efficacies of the combinations of active compounds were determined using Colby's formula (Colby, S. R. “Calculating synergistic and antagonistic responses of herbicide Combinations”, Weeds, 15, pp. 20-22, 1967) and compared with the observed efficacies.

[1] = test system: Erysiphe [syn. Blumeria] graminis forma specialis tritici; experiment: Activity against mildew of wheat (protective spray, potted wheat seedlings cv. Kanzler); type: in vivo; details: single active, 7 days after inoculation
Experimental: as §1, §2, §3, §4
Leaves of potted wheat seedlings of the cultivar “Kanzler” were sprayed to runoff point with an aqueous suspension having the concentration of active compound stated below. The suspension or emulsion had been prepared from a stock solution comprising 10% of active compound in a mixture consisting of 85% of cyclohexanone and 5% of emulsifier. 24 hours after the spray coating had dried on, the seedlings were dusted with spores of mildew of wheat (Erysiphe [syn. Blumeria] graminis forma specialis tritici). The test plants were then placed in a greenhouse at temperatures between 20 and 24° C. and 60 to 90% relative atmospheric humidity. After 7 days, the extent of the mildew development was determined visually in % infection of the total leaf area.
The visually determined percentages of infected leaf area were converted into efficacies as % of the untreated control. An efficacy of 0 means the infection level of the treated plants corresponds to that of the untreated control; an efficacy of 100 means 0% infection. The expected efficacies of the combinations of active compounds were determined using Colby's formula (Colby, S. R. “Calculating synergistic and antagonistic responses of herbicide Combinations”, Weeds, 15, pp., 20-22, 1967) and compared with the observed efficacies.

Compound | Efficacy in % of the untreated control (Puccinia recondita; 0.015 ppm in spray liquor) [%] | Efficacy in % of the untreated control (Puccinia recondita; 0.06 ppm in spray liquor) [%] | Efficacy in % of the untreated control (Puccinia recondita; 0.25 ppm in spray liquor) [%] | Efficacy in % of the untreated control (Puccinia recondita; 1 ppm in spray liquor) [%] | Efficacy in % of the untreated control ([1]; 0.015 ppm in spray liquor) [%] | Efficacy in % of the untreated control ([1]; 0.06 ppm in spray liquor) [%] | Efficacy in % of the untreated control ([1]; 0.25 ppm in spray liquor) [%] | Efficacy in % of the untreated control ([1]; 1 ppm in spray liquor) [%]
COC(=O)N(OC)c1ccccc1COc1ccn(-c2ccc(Cl)cc2)n1 [Compound IV = pyraclostrobin, pyraclostrobin] | 22 | 33 | 33 | 78 | 0 | 0 | 0 | 33
COc1cc(C)c(C(=O)c2c(OC)ccc(Br)c2C)c(OC)c1OC [Compound II = metrafenone, metrafenone] | 0 | 0 | 0 | 0 | 33 | 44 | 56 | 72
Fc1ccc(C2(Cn3cncn3)OC2c2ccccc2Cl)cc1 (stereo not drawn) [Compound III = epoxiconazole, epoxiconazole] | 0 | 67 | 89 | 94 | 0 | 33 | 44 | 56
